Values quoted from earlier work, collected in patent publication US20250000791A1, “OPHTHALMIC FORMULATION FOR PREVENTING AND/OR TREATING CATARACTS BY EYE DROP ADMINISTRATION” (CHENGDU RUIMU BIOPHARMACEUTICALS CO., LTD., priority 2021, published 2025).
Read-outs that look alike come from different tables or passages of the source.

Experiments:
crystallins = conditions: lens fragments of cataract patients; lanosterol 0.20 mM, 25-HC 0.25 and 0.50 mM, 37° C., 72 h
[1] = 0.5% LAN solution with 15% DMSO, 20% ethanol or polysorbate 80, injected into the vitreous body of rats
[2] = test system: cataract nucleus obtained after cataract extraction; conditions: 25 mM lanosterol solution, 6 days

In the case of `C[C@H](CCCC(C)(C)O)[C@H]1CC[C@H]2[C@@H]3CC=C4C[C@@H](O)CC[C@]4(C)[C@H]3CC[C@]12C` [25-hydroxycholesterol], the “binding to crystallins / solving cataract” value (crystallins) is given as “did not find that lanosterol or 25-hydroxycholesterol can bind to crystallins”.

In the case of `CC(C)=CCC[C@@H](C)[C@H]1CC[C@@]2(C)C3=C(CC[C@]12C)[C@@]1(C)CC[C@H](O)C(C)(C)[C@@H]1CC3` [lanosterol], the “effect on lens opacity” value [1] is given as “poses a risk of promoting lens opacity”, the “effect on the vitreous body” value [1] is given as “causes vitreous turbidness” and the effect on cataract (animal cataract model; administration by eye drops alone) is given as “cannot treat cataracts”. The effect on cataract (animal cataract model; nanoparticles into the vitreous cavity once every 3 days combined with 25 mM eye drops six times a week, 6 weeks) was “the cataract disappeared”, the cataract clarity [2] was “no significant improvement in cataract clarity” and the “binding to crystallins / solving cataract” value (crystallins) was “did not find that lanosterol or 25-hydroxycholesterol can bind to crystallins”. The solubility in water was “low solubility in water”.
